For experiment [1], the target named is T1, P2X7 (Homo sapiens (Human), UniProt Q99572). Nature of the experiment: P2X7 antagonism in human peripheral blood mononuclear cells (PBMCs), IL-1β release (LPS + Bz-ATP, ELISA). It is filed as cell-based. The following applies: P2X7, 10 μM test compound, LPS 30 ng/ml + Bz-ATP 0.5 mM, read-out: PBMC @10 μM (% control). As for the experimental part:
(§1) P2X7 Antagonism in Human Peripheral Blood Mononuclear Cells (PBMCs) and Human Whole Blood.
(§2) Human blood was collected using a blood donor program. PBMCs were isolated from blood using a Ficoll density gradient technique. Briefly, blood was laid on Ficoll solution and centrifuged at ROOM TEMPERATURE for 20 minutes at 2000 rpm. The buffy layer (between red blood cells and plasma) was carefully collected by aspiration, washed with PBS and centrifuged again at 1500 rpm for 15 minutes. The resulting cell pellet was washed and plated on 96 well-plates for experiments. For the Human Whole Blood experiments, 150 μl of human blood was plated on 96 well-plates. Lipopolysaccharide (LPS) (30 ng/ml) was added to each well and incubated for 1 hour. Test compounds were then added and incubated for 30 minutes. The P2X7 agonist, 2′(3′)-O-(4-benzoylbenzoyl) adenosine 5′-triphosphate (Bz-ATP) was then added at a final concentration of 0.5 mM (PBMC) or 1 mM (blood). Cells were incubated for an additional 1.5 hours. At that point, supernatant was collected and stored for IL-1β assay using manufacturer's protocol for enzyme-linked immunosorbant assay (ELISA). Data was expressed as percent control, where control is defined as the difference in IL-1β release in LPS+Bz-ATP samples and LPS only samples. Data was plotted as response (% control) versus concentration to generate IC50 values. […] Data are analyzed and graphed on Graphpad Prism 5. For analysis, each concentration point is averaged from triplicate values and the averaged values are plotted on Graphpad Prism. The IC50 for each compound is then uploaded into 3DX.
For orientation: An ELISA detects its analyte on a solid surface through an enzyme-linked reagent.

The target of the next experiment is rat P2X7 (Rattus norvegicus (Rat), UniProt Q64663). Nature of the experiment: P2X7 antagonism in recombinant rat P2X7 cells (column headed P2X7 Rat IC50). It is filed as binding. The procedure: The in vitro affinity of the compounds of the invention for the rat and human P2X7 receptor was determined using a human peripheral blood mononuclear cells (PBMCs), a human whole blood assay, a Ca^2+ flux and radioligand binding assay in recombinant human P2X7 cells and recombinant rat P2X7 cells. […] The data represented in Tables 2 may represent a value from a single determination or when the experiment was run more than once, the data represents the average from between 2-12 runs.
P2X7 Antagonism in Recombinant Human P2X7 Cells or Recombinant Rat P2X7 Cells: […]

Experiment [2] deals with T1, P2X7. Nature of the experiment: P2X7 antagonism in human whole blood, IL-1β release (LPS + Bz-ATP, ELISA). It is filed as cell-based. As to conditions: LPS 30 ng/ml + Bz-ATP 1 mM. The procedure: as §1, §2
The mark [3] stands for this setting: read-out: Human Whole Blood IC50.

This is an account of results in US10150766B2, “P2X7 modulators” (Jansssen Pharmaceutica NV, priority 2014, dated 2018).

Each structure is given as a SMILES string. Like-named read-outs stand apart in the source and are kept apart here. A value given as a limit tells only on which side of the number the result lay.

Sequence of rat P2X7 (Q64663 whole entry): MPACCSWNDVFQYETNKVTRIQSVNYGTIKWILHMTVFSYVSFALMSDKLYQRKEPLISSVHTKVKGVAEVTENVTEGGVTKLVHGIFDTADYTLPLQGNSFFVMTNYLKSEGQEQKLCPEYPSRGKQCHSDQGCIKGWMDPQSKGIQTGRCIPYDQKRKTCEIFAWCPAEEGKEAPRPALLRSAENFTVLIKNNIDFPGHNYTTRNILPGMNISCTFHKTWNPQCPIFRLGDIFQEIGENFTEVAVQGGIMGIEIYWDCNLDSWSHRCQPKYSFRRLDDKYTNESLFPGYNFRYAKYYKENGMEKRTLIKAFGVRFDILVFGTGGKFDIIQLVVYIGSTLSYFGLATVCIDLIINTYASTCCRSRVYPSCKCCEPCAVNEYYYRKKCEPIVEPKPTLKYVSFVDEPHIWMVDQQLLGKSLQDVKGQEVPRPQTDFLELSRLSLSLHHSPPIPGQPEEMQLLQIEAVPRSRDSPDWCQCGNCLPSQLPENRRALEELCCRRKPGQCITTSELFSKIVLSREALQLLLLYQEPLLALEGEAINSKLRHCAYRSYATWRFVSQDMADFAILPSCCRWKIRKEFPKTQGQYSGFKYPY
T1 sequence (Q99572 whole entry): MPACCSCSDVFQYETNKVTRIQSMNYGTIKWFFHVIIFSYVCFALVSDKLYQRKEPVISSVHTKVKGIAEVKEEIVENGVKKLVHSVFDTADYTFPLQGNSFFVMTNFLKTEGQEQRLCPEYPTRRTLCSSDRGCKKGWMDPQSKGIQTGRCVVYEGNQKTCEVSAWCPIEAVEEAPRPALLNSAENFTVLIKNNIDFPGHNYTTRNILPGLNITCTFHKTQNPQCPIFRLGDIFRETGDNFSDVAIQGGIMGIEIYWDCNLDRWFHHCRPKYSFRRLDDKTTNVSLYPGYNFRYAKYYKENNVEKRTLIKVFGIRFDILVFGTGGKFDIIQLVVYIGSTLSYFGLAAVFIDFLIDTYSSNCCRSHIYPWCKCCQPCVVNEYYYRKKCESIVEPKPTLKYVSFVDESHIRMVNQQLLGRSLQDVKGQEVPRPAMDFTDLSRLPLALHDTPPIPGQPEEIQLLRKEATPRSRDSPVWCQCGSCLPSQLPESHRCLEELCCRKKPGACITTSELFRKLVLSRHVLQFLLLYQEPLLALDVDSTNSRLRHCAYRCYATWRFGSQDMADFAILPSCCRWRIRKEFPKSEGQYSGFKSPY

As to `Cc1nc(-c2cnn(C)c2)c2c(n1)[C@H]1CCC[C@@H](C2)N1C(=O)c1ccnc(C(F)(F)F)c1F` [Example 37, (3-fluoro-2-(trifluoromethyl)pyridin-4-yl)((6S,10R)-2-methyl-4-(1-methyl-1H-pyrazol-4-yl)-5,6,7,8,9,10-hexahydro-6,10-epiminocycloocta[d]pyrimidin-11-yl)methanone], the remaining activity at 10 µM at P2X7 [1] worked out at 13.3%. Also, the results for the IC50 on rat P2X7 and at P2X7 [2] (setting [3]) were above 10000 nM and 20.9 µM, respectively.

With `Cc1nc(-c2cnn(C)c2)c2c(n1)[C@H]1CCC[C@@H](C2)N1C(=O)c1ccnc(C(F)(F)F)c1Cl` [Example 32, (3-chloro-2-(trifluoromethyl)pyridin-4-yl)((6S,10R)-2-methyl-4-(1-methyl-1H-pyrazol-4-yl)-5,6,7,8,9,10-hexahydro-6,10-epiminocycloocta[d]pyrimidin-11-yl)methanone], the remaining activity at 10 µM on P2X7 [1] worked out at 4.8%. Moreover, the IC50 (in general, the concentration needed to halve the response being measured) at rat P2X7 was above 10000 nM; on P2X7 [2] (Human Whole Blood IC50 (μM)) it was 1.58 µM.

With `Cc1nc(-c2ccnn2C)c2c(n1)[C@H]1CCC[C@@H](C2)N1C(=O)c1ccnc(C(F)(F)F)c1Cl` [Example 60, (3-chloro-2-(trifluoromethyl)pyridin-4-yl)((6S,10R)-2-methyl-4-(1-methyl-1H-pyrazol-5-yl)-5,6,7,8,9,10-hexahydro-6,10-epiminocycloocta[d]pyrimidin-11-yl)methanone], the remaining activity at 10 µM on P2X7 [1] worked out at 21.4%. Besides, the IC50 was 798 nM on rat P2X7 and 1.98 µM on P2X7 [2] (Human Whole Blood IC50 (μM)).

`Cc1nc(-c2ccc(F)cc2)c2c(n1)[C@@H]1CCC[C@H](C2)N1C(=O)c1ccc(F)cc1Cl` [Example 16, (2-chloro-4-fluorophenyl)((6R,10S)-4-(4-fluorophenyl)-2-methyl-5,6,7,8,9,10-hexahydro-6,10-epiminocycloocta[d]pyrimidin-11-yl)methanone]: on P2X7 [1], the remaining activity at 10 µM stood at 84.8%. The results for the IC50 at rat P2X7 and at P2X7 [2] (Human Whole Blood IC50 (μM)) were above 10000 nM and 7.38 µM, respectively.

Regarding `Cc1nc(-c2cnn(C)c2)c2c(n1)[C@H]1CCC[C@@H](C2)N1C(=O)c1ccc(Cl)cc1F` [Example 38, (4-chloro-2-fluorophenyl)((6S,10R)-2-methyl-4-(1-methyl-1H-pyrazol-4-yl)-5,6,7,8,9,10-hexahydro-6,10-epiminocycloocta[d]pyrimidin-11-yl)methanone], on P2X7 [1], the remaining activity at 10 µM stood at 46.8%. The figures for the IC50 at rat P2X7 and at P2X7 [2] (setting [3]) were above 10000 nM and above 10 µM, respectively.

For `Cc1nc(-c2cnn(C)c2)c2c(n1)[C@H]1CCC[C@@H](C2)N1C(=O)c1ccc(Cl)c(F)c1Cl` [Example 35, (2,4-dichloro-3-fluorophenyl)((6S,10R)-2-methyl-4-(1-methyl-1H-pyrazol-4-yl)-5,6,7,8,9,10-hexahydro-6,10-epiminocycloocta[d]pyrimidin-11-yl)methanone], at P2X7 [1], the remaining activity at 10 µM stood at 9.1%. Besides, the results for the IC50 at rat P2X7 and at P2X7 [2] (setting [3]) were above 10000 nM and 2.3 µM, respectively.

Regarding `Cc1nc(-c2ccn[nH]2)c2c(n1)[C@@H]1CCC[C@H](C2)N1C(=O)c1ccc(Cl)cc1F` [Example 12, (4-chloro-2-fluorophenyl)((6R,10S)-2-methyl-4-(1H-pyrazol-5-yl)-5,6,7,8,9,10-hexahydro-6,10-epiminocycloocta[d]pyrimidin-11-yl)methanone], the remaining activity at 10 µM at P2X7 [1] amounted to 92.6%. The half-maximal inhibitory concentration (IC50) at rat P2X7 was above 10000 nM; on P2X7 [2] (setting [3]) it was 6.12 µM.

For the molecule `Cc1nc(-c2cnn(C)c2)c2c(n1)[C@H]1CCC[C@@H](C2)N1C(=O)c1cccc(C(F)(F)F)c1F` [Example 34, (2-fluoro-3-(trifluoromethyl)phenyl)((6S,10R)-2-methyl-4-(1-methyl-1H-pyrazol-4-yl)-5,6,7,8,9,10-hexahydro-6,10-epiminocycloocta[d]pyrimidin-11-yl)methanone], the remaining activity at 10 µM on P2X7 [1] amounted to 3.3%. Further, the IC50 at rat P2X7 is above 10000 nM; on P2X7 [2] (Human Whole Blood IC50 (μM)), 8.59 µM.

Consider `Cc1nc(-c2ccn[nH]2)c2c(n1)[C@@H]1CCC[C@H](C2)N1C(=O)c1cccc(C(F)(F)F)c1C` [Example 6, (2-methyl-3-(trifluoromethyl)phenyl)((6R,10S)-2-methyl-4-(1H-pyrazol-5-yl)-5,6,7,8,9,10-hexahydro-6,10-epiminocycloocta[d]pyrimidin-11-yl)methanone], for which the remaining activity at 10 µM at P2X7 [1] amounted to 18.1%. Also, the values for the IC50 on rat P2X7 and on P2X7 [2] (Human Whole Blood IC50 (μM)) were 970 nM and 1.13 µM, respectively.

`Cc1nc(-c2ccn[nH]2)c2c(n1)[C@@H]1CCC[C@H](C2)N1C(=O)c1ccnc(C(F)(F)F)c1Cl` [Example 7, (3-chloro-2-(trifluoromethyl)pyridin-4-yl)((6R,10S)-2-methyl-4-(1H-pyrazol-5-yl)-5,6,7,8,9,10-hexahydro-6,10-epiminocycloocta[d]pyrimidin-11-yl)methanone]: the remaining activity at 10 µM on P2X7 [1] was 20.5%. In addition, the IC50 on rat P2X7 amounted to 920 nM; on P2X7 [2] (Human Whole Blood IC50 (μM)) it was 2.35 µM.

As to `Cc1nc(-c2cnn(C)c2)c2c(n1)[C@H]1CCC[C@@H](C2)N1C(=O)c1cccc(C(F)(F)F)c1C` [Example 39, (2-methyl-3-(trifluoromethyl)phenyl)((6S,10R)-2-methyl-4-(1-methyl-1H-pyrazol-4-yl)-5,6,7,8,9,10-hexahydro-6,10-epiminocycloocta[d]pyrimidin-11-yl)methanone], on P2X7 [1], the remaining activity at 10 µM is 1%. The IC50 on rat P2X7 is above 10000 nM; on P2X7 [2] (Human Whole Blood IC50 (μM)), 1.09 µM.

Turning to `Cc1nc(-c2ccn[nH]2)c2c(n1)[C@@H]1CCC[C@H](C2)N1C(=O)c1ccc(F)c(Cl)c1Cl` [Example 4, (2,3-dichloro-4-fluorophenyl)((6R,10S)-2-methyl-4-(1H-pyrazol-5-yl)-5,6,7,8,9,10-hexahydro-6,10-epiminocycloocta[d]pyrimidin-11-yl)methanone], the remaining activity at 10 µM at P2X7 [1] worked out at 25.4%. For the same molecule, the figures for the IC50 at rat P2X7 and at P2X7 [2] (Human Whole Blood IC50 (μM)) were 948 nM and 1.36 µM, respectively.

`Cc1nc(-c2ccn[nH]2)c2c(n1)[C@@H]1CCC[C@H](C2)N1C(=O)c1ccc(F)cc1Cl` [Example 9, (2-chloro-4-fluorophenyl)((6R,10S)-2-methyl-4-(1H-pyrazol-5-yl)-5,6,7,8,9,10-hexahydro-6,10-epiminocycloocta[d]pyrimidin-11-yl)methanone]: the remaining activity at 10 µM at P2X7 [1] came out at 91.3%. For the same molecule, the 50% inhibitory concentration (IC50) on rat P2X7 is above 10000 nM; on P2X7 [2] (setting [3]) it was 2.96 µM.

As for `Cc1nc(-c2cnn(C)c2)c2c(n1)[C@H]1CCC[C@@H](C2)N1C(=O)c1cccc(Cl)c1Cl` [Example 31, (2,3-dichlorophenyl)((6S,10R)-2-methyl-4-(1-methyl-1H-pyrazol-4-yl)-5,6,7,8,9,10-hexahydro-6,10-epiminocycloocta[d]pyrimidin-11-yl)methanone], the remaining activity at 10 µM at P2X7 [1] was -0.9%. Further, the IC50 is above 10000 nM on rat P2X7 and 2.67 µM at P2X7 [2] (Human Whole Blood IC50 (μM)).
